# Results from ChEMBL document CHEMBL4610066, “Phytol, a Chlorophyll Component, Produces Antihyperalgesic, Anti-inflammatory, and Antiarthritic Effects: Possible NFκB Pathway Involvement and Reduced Levels of the Proinflammatory Cytokines TNF-α and IL-6” (J Nat Prod, 2020).
# Activity calls are given as the source filed them.
# What was measured:
# [1] = system: Mus musculus; assay: In vivo inhibition of NFkappaB phosphorylation at ser536 residue in complete freund's adjuvant-induced albino Swiss mouse model of arthritis at 50 mg/kg, po pretreated for 1 hr followed by CFA stimulation and measured after 3 days by Western blot analysis; format: functional, organism-based
# [2] = system: Mus musculus; assay: (§1) Antiinflammatory activity in complete freund's adjuvant-induced albino Swiss mouse model of arthritis assessed as reduction in COX2 production in spinal cord at 50 mg/kg, po pretreated for 1 hr followed by CFA stimulation and measured after 3 days by Western blot analysis; format: functional, organism-based
# [3] = system: Mus musculus; assay: Antiinflammatory activity in complete freund's adjuvant-induced albino Swiss mouse model of arthritis assessed as reduction in paw edema AUC at 25 mg/kg, po pretreated for 1 hr followed by CFA stimulation and measured up to 6 hrs by plethysmometric method relative to control; format: functional; set-up: scale not given: the % may be the effect or the level left
# [4] = system: Mus musculus; assay: Antiinflammatory activity in complete freund's adjuvant-induced albino Swiss mouse model of arthritis assessed as reduction in leukocyte content in synovial fluid at 50 mg/kg, po pretreated for 1 hr followed by CFA stimulation and measured after 3 days; format: functional, organism-based
# [5] = system: Mus musculus; assay: Antiinflammatory activity in complete freund's adjuvant-induced albino Swiss mouse model of arthritis assessed as reduction in IL10 production in synovial fluid at 50 mg/kg, po pretreated for 1 hr followed by CFA stimulation and measured after 3 days; format: functional, organism-based
# [6] = system: Mus musculus; assay: Antiinflammatory activity in complete freund's adjuvant-induced albino Swiss mouse model of arthritis assessed as suppression of CFA-induced increase in total NFkappaB level at 50 mg/kg, po pretreated for 1 hr followed by CFA stimulation and measured after 3 days by Western blot analysis; format: functional, organism-based
# [7] = system: Mus musculus; assay: Analgesic activity in albino Swiss mouse assessed as increase in reaction time at 50 mg/kg, po measured after 60 to 240 mins by hot plate test; format: functional, organism-based
# [8] = system: Mus musculus; assay: Antiinflammatory activity in complete freund's adjuvant-induced albino Swiss mouse model of arthritis assessed as reduction in edema AUC at 50 mg/kg, po administered once daily for 10 days measured every other day during compound dosing relative to control; format: functional; set-up: scale not given: the % may be the effect or the level left
# [9] = system: Mus musculus; assay: Antiinflammatory activity in complete freund's adjuvant-induced albino Swiss mouse model of arthritis assessed as reduction in paw volume at 25 to 50 mg/kg, po pretreated for 1 hr followed by CFA stimulation and measured after 2 hrs by plethysmometric method; format: functional, organism-based
# [10] = system: Mus musculus; assay: Analgesic activity in formalin-induced albino Swiss mouse model of nociception assessed as reduction in time spent in paw licking during neurogenic phase at 50 mg/kg, po pretreated for 1 hr followed by formalin stimulation and measured up to 5 mins by formalin test; format: functional, organism-based
# [11] = system: Mus musculus; assay: Antiinflammatory activity in complete freund's adjuvant-induced albino Swiss mouse model of arthritis assessed as reduction in IL6 production in spinal cord at 50 mg/kg, po pretreated for 1 hr followed by CFA stimulation and measured after 3 days; format: functional, organism-based
# [12] = system: Mus musculus; assay: Antiinflammatory activity in complete freund's adjuvant-induced albino Swiss mouse model of arthritis assessed as reduction in TNFalpha production in synovial fluid at 50 mg/kg, po pretreated for 1 hr followed by CFA stimulation and measured after 3 days; format: functional, organism-based
# [13] = system: Mus musculus; assay: Effect on ERK1/2 signaling in complete freund's adjuvant-induced albino Swiss mouse model of arthritis at 50 mg/kg, po pretreated for 1 hr followed by CFA stimulation and measured after 3 days by Western blot analysis; format: functional, organism-based
# [14] = Neurotoxicity in complete freund's adjuvant-induced albino Swiss mouse model of arthritis assessed as induction of myorelaxant effect by measuring change in muscle force at 50 mg/kg, po pretreated for 1 hr followed by CFA stimulation and measured every other day for 10 days by grip strength meter method; format: toxicity, organism-based; details: in vivo, 240 h
# [15] = system: Mus musculus; assay: Analgesic activity in formalin-induced albino Swiss mouse model of nociception assessed as reduction in time spent in paw licking during inflammatory phase at 25 to 50 mg/kg, po pretreated for 1 hr followed by formalin stimulation and measured after 15 to 30 mins by formalin test; format: functional, organism-based
# [16] = system: Mus musculus; assay: Antiinflammatory activity in complete freund's adjuvant-induced albino Swiss mouse model of arthritis assessed as reduction in paw edema at 50 mg/kg, po pretreated for 1 hr followed by CFA stimulation and measured up to 6 hrs by plethysmometric method relative to control; format: functional; set-up: scale not given: the % may be the effect or the level left
# [17] = system: Mus musculus; assay: Analgesic activity in albino Swiss mouse assessed as increase in reaction time at 25 mg/kg, po measured after 60 to 90 mins by hot plate test; format: functional, organism-based
# [18] = system: Mus musculus; assay: as §1, with “In vivo inhibition of MAPK pathway” for “Antiinflammatory activity”, “phosphorylated p38 MAPK to total p38 MAPK ratio” for “COX2 production”; format: functional, organism-based
# [19] = system: Mus musculus; assay: Antiinflammatory activity in complete freund's adjuvant-induced albino Swiss mouse model of arthritis assessed as reduction in joint swelling at 50 mg/kg, po administered once daily for 10 days measured every other day during compound dosing; format: functional, organism-based
# [20] = system: Mus musculus; assay: Antiinflammatory activity in complete freund's adjuvant-induced albino Swiss mouse model of arthritis assessed as reduction in MPO activity in synovial fluid at 50 mg/kg, po pretreated for 1 hr followed by CFA stimulation and measured after 3 days; format: functional, organism-based
# [21] = system: Mus musculus; assay: Analgesic activity in complete freund's adjuvant-induced albino Swiss mouse model of hyperalgesia assessed as increase in paw withdrawal threshold at 50 mg/kg, po pretreated for 1 hr followed by CFA stimulation and measured after 7 hrs by analgesimetric method; format: functional, organism-based
# [22] = system: Mus musculus; assay: Analgesic activity in complete freund's adjuvant-induced albino Swiss mouse model of hyperalgesia assessed as increase in paw withdrawal threshold at 50 mg/kg, po administered daily and measured every other for 10 days and on day 21 and 28; format: functional, organism-based
# [23] = system: Mus musculus; assay: Antiinflammatory activity in complete freund's adjuvant-induced albino Swiss mouse model of arthritis assessed as reduction in paw edema AUC at 50 mg/kg, po pretreated for 1 hr followed by CFA stimulation and measured up to 6 hrs by plethysmometric method relative to control; format: functional; set-up: scale not given: the % may be the effect or the level left
# [24] = system: Mus musculus; assay: Antiinflammatory activity in complete freund's adjuvant-induced albino Swiss mouse model of arthritis assessed as reduction in IL6 production in synovial fluid at 50 mg/kg, po pretreated for 1 hr followed by CFA stimulation and measured after 3 days; format: functional, organism-based
# [25] = system: Mus musculus; assay: Analgesic activity in albino Swiss mouse assessed as increase in reaction time at 25 mg/kg, po measured after 120 to 240 mins by hot plate test; format: functional, organism-based
# [26] = Neurotoxicity in complete freund's adjuvant-induced albino Swiss mouse model of arthritis assessed as motor coordination impairment at 50 mg/kg, po pretreated for 1 hr followed by CFA stimulation and measured up to 240 mins by rotarod test; format: toxicity, organism-based; details: in vivo, 4 h
smiles,measurement,setting,value
C/C(=C\CO)CCC[C@H](C)CCC[C@H](C)CCCC(C)C [TRANS-PHYTOL],inhibition,[1],Active
same,Activity,[2],Active
same,Activity,[3],18%
same,Activity,[4],Active
same,Activity,[5],inactive
same,Activity,[6],Active
same,Activity,[7],Active
same,Activity,[8],46%
same,Activity,[9],Active
same,Activity,[10],Active
same,Activity,[11],Active
same,Activity,[12],Active
same,Activity,[13],inactive
same,Activity,[14],Non-Toxic
same,Activity,[15],Active
same,Activity,[16],45%
same,Activity,[17],Active
same,inhibition,[18],Active
same,Activity,[19],Active
same,Activity,[20],Active
same,Activity,[21],Active
same,Activity,[22],Active
same,Activity,[23],45%
same,Activity,[24],Active
same,Activity,[25],inactive
same,Activity,[26],Non-Toxic
